“And” between values parts separate entries of the source, which are not always exact repeats. Equal values may be shown once.
biological target: T1, progesterone receptor (PR) (Homo sapiens, UniProt P06401); assay: T47D cell alkaline phosphatase assay; assay type: cell-based; details: T47D; read-out: Alk. Phos. % inh @ 3 μM
T1 construct: endogenous in cells; host or cells: T47D cells
T1 sequence (P06401 1-933): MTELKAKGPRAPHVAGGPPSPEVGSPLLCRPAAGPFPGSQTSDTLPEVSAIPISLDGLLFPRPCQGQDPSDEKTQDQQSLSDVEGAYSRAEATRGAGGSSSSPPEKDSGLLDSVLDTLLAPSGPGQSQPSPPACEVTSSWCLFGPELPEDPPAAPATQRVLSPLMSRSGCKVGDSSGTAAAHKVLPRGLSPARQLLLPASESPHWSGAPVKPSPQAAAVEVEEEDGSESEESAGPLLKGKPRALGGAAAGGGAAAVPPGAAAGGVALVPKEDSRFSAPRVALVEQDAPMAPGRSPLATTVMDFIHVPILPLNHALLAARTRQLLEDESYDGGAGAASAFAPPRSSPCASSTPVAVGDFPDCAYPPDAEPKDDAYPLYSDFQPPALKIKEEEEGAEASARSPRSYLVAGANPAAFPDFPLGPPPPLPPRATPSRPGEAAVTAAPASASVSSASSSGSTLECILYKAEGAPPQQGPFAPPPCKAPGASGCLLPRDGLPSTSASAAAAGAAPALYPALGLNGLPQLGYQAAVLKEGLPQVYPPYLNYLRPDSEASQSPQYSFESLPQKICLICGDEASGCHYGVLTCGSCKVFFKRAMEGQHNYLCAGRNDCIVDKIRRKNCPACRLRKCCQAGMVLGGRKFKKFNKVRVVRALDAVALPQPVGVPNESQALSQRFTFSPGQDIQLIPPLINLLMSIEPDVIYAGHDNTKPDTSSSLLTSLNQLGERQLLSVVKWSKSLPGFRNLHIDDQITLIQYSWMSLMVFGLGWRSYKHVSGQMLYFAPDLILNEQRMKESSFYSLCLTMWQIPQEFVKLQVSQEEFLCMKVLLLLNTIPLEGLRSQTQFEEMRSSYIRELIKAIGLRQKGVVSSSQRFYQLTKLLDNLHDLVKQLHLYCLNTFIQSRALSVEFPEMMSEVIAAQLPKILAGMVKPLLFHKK
Procedure: (i) Purpose: To identify progestins or antiprogestins by determining a compound's effect on alkaline phosphatase activity in T47D cells.
A. Reagents • (i) Culture Medium: • DMEM:F12 (1:1) (GIBCO, BRL) supplemented with 5% (v/v) charcoal stripped fetal bovine serum (not heat-inactivated), 100U/mL penicillin, […] streptomycin, and 2 mM the GlutaMax™ reagent (GIBCO, BRL). • (ii) Alkaline phosphatase assay buffer: • I. 0.1 M Tris-HCl, pH 9.8, containing 0.2% the Triton™ X-100 reagent; • II. 0.1 M Tris-HCl, pH 9.8 containing 4 mM p-nitrophenyl phosphate (Sigma).
B. Cell Culture and Treatment • Frozen T47D cells were thawed in a 37° C. water bath and diluted to 280,000 cells/mL in culture medium. To each well in a 96-well plate (Falcon, Becton Dickinson Labware), 180 ? L of diluted cell suspension was added. Twenty ? L of reference or test compounds diluted in the culture medium was then added to each well. […] The cells were incubated at 37° C. in a 5% CO2/humidified atmosphere for 24 hours. • Note: For high throughput screening, one concentration of each compound was tested at 0.3 mg/mL. Based on an average molecular weight of 300 g/mol for the compounds in the library, the concentration was approximately 1 mM.
C. Alkaline Phosphatase Enzyme Assay • At the end of treatment, the medium was removed from the plate. Fifty ? L of assay buffer I was added to each well. The plates were shaken in a titer plate shaker for 15 minutes. Then 150 ? L of assay buffer II was added to each well.
Square root-transformed data were used for analysis of variance and nonlinear dose response curve fitting for both agonist and antagonist modes. Huber weighting was used to downweight the effects of outliers. EC50 or IC50 values were calculated from the retransformed values. JMP software (SAS Institute, Inc.) was used for both one-way analysis of variance and non-linear dose response analyses in both single dose and dose response studies.

Going from `CC1(C)C/C(=N\O)c2ccc(-c3ccc(Cl)cc3)cc21` [Example 33, (1E)-5-(4-chlorophenyl)-3,3-dimethylindan-1-one oxime] to `Cc1ccc(-c2ccc3c(c2)C(C)(C)C/C3=N\O)cc1` [Example 34, (1E)-3,3-dimethyl-5-(4-methylphenyl)indan-1-one oxime], the inhibition at 3 µM falls from 100% to 68%.

First: COc1ccc(-c2ccc3c(c2)C(C)(C)C/C3=N\O)cc1 [Example 35, (1E)-5-(4-methoxyphenyl)-3,3-dimethylindan-1-one oxime]
Second: COc1cccc(-c2ccc3c(c2)C(C)(C)C/C3=N\O)c1 [Example 38, (1E)-5-(3-methoxyphenyl)-3,3-dimethylindan-1-one oxime]
The inhibition at 3 µM of the first is higher: 63% for the first, 42% for the second.

Going from `CC1(C)C/C(=N\O)c2ccc(-c3cccc(Cl)c3)cc21` [Example 36, (1E)-5-(3-chlorophenyl)-3,3-dimethylindan-1-one oxime] to `Cc1cccc(-c2ccc3c(c2)C(C)(C)C/C3=N\O)c1` [Example 37, (1E)-3,3-dimethyl-5-(3-methylphenyl)indan-1-one oxime], the inhibition at 3 µM falls from 70% to 65%.

First: CC1(C)C/C(=N\O)c2ccc(-c3cc(Cl)cc(Cl)c3)cc21 [Example 39, (1E)-5-(3,5-dichlorophenyl)-3,3-dimethylindan-1-one oxime]
Second: CC1(C)C/C(=N\O)c2ccc(-c3cccc(Cl)c3Cl)cc21 [Example 42, (1E)-5-(2,3-dichlorophenyl)-3,3-dimethylindan-1-one oxime]
The inhibition at 3 µM of the first is lower: 30% for the first, 100% for the second.

`CC1(C)C/C(=N\O)c2ccc(-c3ccccc3Cl)cc21` [Example 40, (1E)-5-(2-chlorophenyl)-3,3-dimethylindan-1-one oxime] showed an inhibition at 3 µM of 62%.

same assay, conditions: read-out: Alk. Phos. IC50

Compared with `CC1C/C(=N\O)c2ccc(-c3ccc(C#N)n3C)cc21` (stereo not shown) [Example 3, 5-[(1E)-1-(hydroxyimino)-3-methyl-2,3-dihydro-1H-inden-5-yl]-1-methyl-1H-pyrrole-2-carbonitrile], `Cn1c(C#N)ccc1-c1ccc2c(c1)CCC/C2=N\O` [Example 15, 5-[(5E)-5-(hydroxyimino)-5,6,7,8-tetrahydronaphthalen-2-yl]-1-methyl-1H-pyrrole-2-carbonitrile] is 2-fold lower in IC50: 65 nM for the first, 32.6 nM for the second.

Compared with `N#Cc1cccc(-c2ccc3c(c2)CC/C3=N\O)c1` [Example 6, 3-[(1E)-1-(hydroxyimino)-2,3-dihydro-1H-inden-5-yl]benzonitrile], `N#Cc1ccc(-c2ccc3c(c2)CC/C3=N\O)cc1` [Example 7, 4-[(1E)-1-(hydroxyimino)-2,3-dihydro-1H-inden-5-yl]benzonitrile] is 3-fold lower in IC50: roughly 3000 nM for the first, roughly 1000 nM for the second. The second is the more potent here.

Work on `CC1(C)C/C(=N\O)c2ccc(-c3ccc(Cl)c(Cl)c3)cc21` [Example 41, (1E)-5-(3,4-dichlorophenyl)-3,3-dimethylindan-1-one oxime] yielded an IC50 of 456 nM.

tested on: T47D cells; assay: T47D cell proliferation assay (BrdU incorporation); assay type: cell-based; details: half-maximal decrease in 0.1 trimegestone induced BrdU incorporation in T47D cells; individual Exp; read-out: EC50 (Estimated IC50)
Procedure: (a) Objective: Determination of progestational and antiprogestational potency by using a cell proliferation assay in T47D cells. A compound's effect on DNA synthesis in T47D cells is measured.
A. Reagents • (i) Growth medium: DMEM:F12 (1:1) (GIBCO, BRL) supplemented with 10% (v/v) fetal bovine serum (not heat-inactivated), 100U/mL penicillin, […] streptomycin, and 2 mM GlutaMax™ media (GIBCO, BRL). • (ii) Treatment medium: Minimum Essential Medium (MEM) (#51200-038GIBCO, BRL) phenol red-free supplemented with 0.5% charcoal stripped fetal bovine serum, 100U/mL penicillin, […] streptomycin, and 2 mM GlutaMax™ media (GIBCO, BRL).
B. Cell Culture • Stock T47 D cells are maintained in growth medium. […]
C. Cell Proliferation Assay • At the end of BrdU labeling, the medium is removed and BrdU incorporation is measured using a cell proliferation ELISA kit (#RPN 250, Amersham Life Science) according to manufacturer's instructions. […] L of 1 M sulfuric acid is added to each well to stop color reaction and optical density is read in a plate reader at 450 nm within 5 minutes.
D. Analysis of Results • Square root-transformed data are used for analysis of variance and nonlinear dose response curve fitting for both agonist and antagonist modes. […] EC50 or IC50 values are calculated from the retransformed values. […]

In the case of `CC#C[C@]1(O)CC[C@H]2[C@@H]3CCC4=CC(=O)CCC4=C3[C@@H](c3ccc(N(C)C)cc3)C[C@@]21C` [RU486], the IC50 is reported as 0.016 nM and 0.018 nM.

same assay, conditions: half-maximal increase in BrdU incorporation in T47D cells; individual studies (Exp); read-out: Estimated EC50

In the case of `C[C@H](O)C(=O)[C@@]1(C)CC[C@H]2[C@@H]3CCC4=CC(=O)CCC4=C3CC[C@@]21C` [Trimegestone], the EC50 is reported as 0.017 nM and 0.014 nM and 0.019 nM.

tested on: rat uterine decidualization; assay: Rat decidualization assay; assay type: in vivo; details: p.o.; half-maximal decrease in EC50 progesterone induced decidual response; individual Exp
Procedure: C. […] The animals are treated once daily for seven days.
Uteri are removed and trimmed of fat.
Decidual response: [(D−C)/C]×100%

`CC#C[C@]1(O)CC[C@H]2[C@@H]3CCC4=CC(=O)CCC4=C3[C@@H](c3ccc(N(C)C)cc3)C[C@@]21C` [RU486] was tested, and the “Estimated IC50” value was 0.21 mg/kg and 0.14 mg/kg.

same assay, conditions: s.c.; average of dose-response curves; rat decidual response

`C#C[C@]1(O)CC[C@H]2[C@@H]3CCC4=CC(=O)CC[C@@H]4[C@H]3C(=C)C[C@@]21CC` [3-Ketodesogestrel] and `C#C[C@]1(O)CC[C@H]2[C@@H]3CCC4=CC(=O)CC[C@@H]4[C@H]3CC[C@@]21CC` [Levonorgestrel] are the same in “Estimated average EC50” value: 0.10 mg/kg for the first, 0.10 mg/kg for the second.

Source: US7414142B2 (Wyeth, priority 2005, dated 2008)
